From patent US20190192458A1, “THERAPEUTIC/PROPHYLACTIC AGENT FOR GRAFT-VERSUS-HOST DISEASE, FIBROCYTE INVASION INHIBITOR, AND INHIBITOR AGAINST TEAR REDUCTION AND REDUCTION IN GOBLET CELLS” (KEIO UNIVERSITY, priority 2016, published 2019)

What was measured:
[1] = test system: endoplasmic reticulum stress markers and related inflammation markers in cGVHD target organs; test: Immunoblot analysis of endoplasmic reticulum stress markers and related inflammation markers in cGVHD target organs; type: in vivo, mouse; details: n=4
Experimental: (§1) Bone marrow transplantation was performed as described in the above section “Bone marrow transplantation,” and the resulting allogeneic bone marrow transplantation recipient mice were divided into two groups. One group was treated with intraperitoneal injection of PBA (10 mg/kg) (Aldrich) while the other was treated with intraperitoneal injection of a solvent vehicle⋅phosphate buffered saline (PBS) (pH 7.4). The allogeneic bone marrow transplantation recipients received once-daily administration of PBA or the solvent vehicle from Day 10 to Day 27 after bone marrow transplantation. They were sacrificed on Day 28 after bone marrow transplantation.
cGVHD-affected organs (exorbital lacrimal gland, proximal portion of the small intestine, dorsal skin, liver, salivary gland, lung, large intestine, and eyes) were analyzed herein.
(§2) Tissues of interest were each placed into an Eppendorf tube, and a pre-cooled RIPA buffer solution was then added to the tube. Subsequently, the tissues were each homogenized with an electric homogenizer. Samples were each allowed to stand on ice for 1 hour, and then centrifuged at 15000 rpm for 5 minutes at 4° C. Then, the supernatants were each collected in a fresh tube on ice, and used as a cell lysate. The cell lysates each received the same amount of a 5×Laemmli buffer solution, and each was heated at 100° C. for 5 minutes to denature proteins.
(§3) An aliquot of each sample having the same amount of proteins was loaded into a well of an SDS-PAGE gel, and then […]. Proteins were transferred from the gel to a membrane at 15 V for 20 minutes. The membrane was blocked at room temperature for 1 hour with 5% skim milk or 5% BSA (bovine serum albumin) in 1×TBST (a mixture of Tris-buffered saline and Tween 20). Subsequently, the membrane was incubated with a primary antibody at 4° C. overnight. The above primary antibody was diluted 1000 times with 5% skim milk or 5% BSA in 1×TBST. After incubation with the primary antibody, the membrane was washed with 1×TBST (3×10 minutes), and subjected to a secondary antibody at room temperature for 1 hour, and then washed with 1×TBST (3×10 minutes) and 1×TBS (2×10 minutes).
Proteins of interest were visualized by either one of the following two methods. (1) A target protein was colorimetrically detected using a BCIP/NBT substrate (Promega). (2) A signal was developed with an enhanced chemiluminescence (ECL) detection reagent (GE Healthcare), and a target protein was then visualized with an LAS4000 mini chemiluminescence imaging system (FUJIFILM Corporation/GE Healthcare).
The intensity of the resulting protein band was analyzed using image processing software ImageJ. Primary antibodies used in the experiments were GRP78 (Abcam), phospho-PERK (Thr980; Cell Signaling Technology Inc.), PERK (C33E10; Cell Signaling Technology Inc.), phosphor-IRE1α (Thermo Fisher Sceientific), IRE1α (14C10; Cell Signaling Technology Inc.), phosphor-eIF2α (119A11; Cell Signaling Technology Inc.), eIF2α (Cell Signaling Technology Inc.), CHOP (9C8; Thermo Fisher Scientific), TXNIP (D5F3E, Cell Signaling Technology Inc.), NF-κB (Abcam), HSP47 (SPA-470; Stress-Gen Biotechnologies Corp.), CTGF (Abcam), and β-actin (AC-15; Abcam).
With regard to the secondary antibody, (1) either AP-conjugated anti-mouse IgG antibody (Promega) or AP-conjugated anti-rabbit IgG antibody (Promega) was used when protein bands were chromogenically visualized; (2) HRP-conjugated anti-mouse antibody (Thermo Fisher Scientific) or HRP-conjugated anti-rabbit antibody (Thermo Fisher Scientific) was used when target proteins were detected by ECL.

[2] = test system: mouse lacrimal gland fibroblasts; test: Cultured lacrimal gland fibroblasts from PBA-treated and vehicle-treated mice (immunoblot, ELISA, qPCR); type: cell-based
Experimental: as §1
Fibroblasts from a mouse lacrimal gland were cultured by an established method reported by Yaguchi et al. (Yaguchi S, Ogawa Y, Shimmura S, et al., Presence and Physiologic Function of the Renin—Angiotensin System in Mouse Lacrimal Gland. Investigative Ophthalmology & Visual Science, 2012; 53: 5416-5425). A mouse lacrimal gland was collected and cut into small pieces. The tissue pieces were incubated at 37° C. in DMEM (Life Technologies Japan Ltd.) containing 5% of fetal bovine serum (FBS) Sigma), and 5% of an antibiotic. The antibiotic included a 1:1 mixture of streptomycin sulfate (Meiji Seika Pharma Co., Ltd.) and benzylpenicillin potassium (Meiji Seika Kaisha, Ltd.). The small pieces were used to grow fibroblasts starting from 3 to 4 days later. Fibroblasts were cultured in DMEM containing 5% of FBS and 5% of the antibiotic, and were used in experiments after 3 to 5 passages. Trypsin (Becton Dickinson) was used to detach fibroblasts from the culture dish.
The total RNA was extracted from the exorbital lacrimal gland, the proximal portion of the small intestine, the dorsal skin, the liver, the cultured fibroblasts, and the cultured macrophages using a miRNeasy mini kit (Qiagen), and the corresponding complementary DNAs were synthesized using a Rever Tra Ace qPCR RT kit (Toyobo Co., Ltd.). Primers used for analyzing the mRNA expression of the following genes with the TaqMan real-time polymerase chain reaction (PCR) were purchased from Applied Biosystems: housekeeping gene […] (GAPDH), glucose-regulated protein 78 (GRP78), Interleukin-1β (IL-1β), IL-6, IL-10, macrophage chemoattractant protein-1 (MCP-1), and transcription growth factor-β (TGF). A Step One Plus system (Applied Biosystems) was used to perform quantitative real time PCR, and the resulting data was analyzed by the 2^−ΔΔCT method. GAPDH was used as an internal standard for measuring the expression of mRNA.
as §2, §3
Proteins of interest were visualized by either one of the following two methods. […]

[3] = PBA-treated vs vehicle-treated organs
[4] = organs of PBA-treated (10 mg/kg i.p.) vs vehicle-treated cGVHD mice
[5] = PBA-treated vs vehicle-treated fibroblasts, immunoblot, n=4
[6] = cultured fibroblasts from PBA-treated vs vehicle-treated mice, immunoblot

## O=C(O)CCCc1ccccc1 [PBA, 4-phenyl-n-butyric acid]
[1]; [3]
  proinflammatory molecule NF-κB in organs: inhibited
  proinflammatory molecule TXNIP in organs: inhibited
[1]; [4]
  protein level of CHOP in organs: lower protein levels
  protein level of GRP78 in organs: lower protein levels
  protein level of p-IRE1α in organs: lower protein levels
  protein level of p-PERK in organs: lower protein levels
  protein level of p-eIF2α in organs: lower protein levels
[2]; PBA-treated vs vehicle-treated fibroblasts, ELISA, n=4
  production of MCP-1 by lacrimal gland fibroblasts: decreased
[2]; [5]
  protein level of CTGF in lacrimal gland fibroblasts: decreased
  protein level of HSP47 in lacrimal gland fibroblasts: decreased
[2]; PBA-treated vs vehicle-treated fibroblasts, qPCR, n=4
  mRNA levels of IL-6 in lacrimal gland fibroblasts: decreased
[2]; [6]
  CHOP in lacrimal gland fibroblasts: markedly inhibited
  GRP78 in lacrimal gland fibroblasts: markedly inhibited
  phosphorylated IRE1α in lacrimal gland fibroblasts: markedly inhibited
  phosphorylated PERK in lacrimal gland fibroblasts: markedly inhibited
  phosphorylated eIF2α in lacrimal gland fibroblasts: markedly inhibited
